≈ marks a conversion by molar mass, not a printed value. Where “and” joins values, the source holds several entries; their conditions need not be identical. Identical values can stand only once.
Columns and labels:
[1] = Mouse brain homogenate binding (in vitro binding study); format: in vitro ADME
Method: (§1) Free drug fraction in brain and plasma compartment was determined in vitro (Table 7). Brain to plasma (B/P) ratio was also determined in vivo (Table 8).

[2] = system: MDA-MB-231 cells; assay: TNBC cell invasion, Transwells coated with Matrigel; format: cell-based; details: 10 μM, 24-72 hours
Method: FIGS. 2A and 2B are graphs showing the effect of VMY-BC-1 on TNBC cells. […] The percentage of cells crossing the chamber is presented as the mean±SEM. *P<0.05.
Effect of VMY-BC-1 on Triple Negative Breast Cancer Cell Lines A trans-stilbene boronic acid analog, VMY-BC-1, was tested against a TNBC cell line.

[3] = Stability in simulated gastric fluid; format: physicochemical
[4] = Stability in simulated intestinal fluid; format: physicochemical
[5] = system: ULK1; assay: Western blot of autophagy proteins in U87 cells; format: cell-based; details: 10 μM, 12-48 hours
Method: FIG. 14 is a Western blot of autophagy proteins in U87 GBM cells treated with vehicle (control), VMY-BC-1, or Rapamycin. Western blot is shown for p-ULK1, LC3 A/B, and cleaved PARP.
The effect of VMY-BC-1 on autophagy-related proteins in U87 cells was tested. Protein extracts were made from cells treated with vehicle control, VMY-BC-1 (10 μM), or rapamycin (200 nM) for 12-48 hours.

[6] = Brain pharmacokinetics in mice; format: in vivo
Method: Pharmacokinetics of VMY-BC-1 in the brain were assessed in mice administered 25 mg/kg VMY-BC-1 p.o. (Table 6).
as §1

[7] = Plasma vs tumor PK in MDA-MB-231 xenograft mice; format: in vivo, athymic nude mice
Method: FIGS. 10A and 10B are graphs showing plasma (FIG. 10A) and tumor (FIG. 10B) concentrations of VMY-BC-1 in MDA-MB-231 xenograft mice administered 75 mg/kg VMY-BC-1.
At the end of the study, brain and plasma samples were collected for drug concentration. Tumor tissues were collected for immunohistochemistry, Western blot, and bioanalysis. Statistical analysis of tumor growth in the control and treated groups was performed by Student's T test using GraphPad Prism (Ver. 5.03).
The impact of VMY-BC-1 on autophagy proteins in tumor tissue was also investigated. […] Finally, as shown in Table 4 and FIGS. 10A and 10B, VMY-BC-1 had 3-fold higher drug concentration (Cmax) in tumors than in plasma.

[8] = Thermodynamic solubility; format: physicochemical; details: pH 7.4, aqueous buffer, thermodynamic from solid
Method: Moreover, PK studies of RSV in humans conclude that even high concentration of RSV might be insufficient to achieve in vivo concentrations required for the systemic prevention of cancer. Therefore, in vitro ADME assays were carried out to assess VMY-BC-1 and to identify properties for further optimization.

[9] = Pharmacokinetics of BC-2 and BC-3 in mouse plasma and brain; format: in vivo, mice; details: mouse, in vivo, po, 5 mg/kg
Method: Pharmacokinetics were assessed in mice administered a single oral dose of 5 mg/kg of the indicated compound (Tables 9 and 10).

[10] = 25 mg/kg single dose P.O., 0.00 h
[11] = 25 mg/kg single dose P.O., 12.00 h
[12] = 25 mg/kg single dose P.O., 24.00 h
[13] = athymic nude, mouse, Plasma, oral 75 mg/kg
[14] = athymic nude, mouse, Tumor, oral 75 mg/kg

SMILES: COc1ccc(/C=C/c2cc(OC)cc(B(O)O)c2)cc1 [VMY-BC-1]
- Bound (%) ([1]; Mouse Brain Homogenate): 30.08%
- fraction unbound ([1]; Mouse Brain Homogenate): 0.699
- recovery ([1]; mouse, mouse brain homogenate): 108%
- TNBC cell invasion [2]: significantly inhibited TNBC cell invasion in a time-dependent manner
- Stability in simulated gastric fluid [3]: stable
- Stability in simulated gastric fluid, pH 1.2 ([3]; pH 1.2): 87.81% remaining
- Stability in simulated intestinal fluid [4]: 97.24% remaining
- Stability in simulated intestinal fluid (words) [4]: stable
- Autophagy proteins and phosphorylation of ULK1 and LC3 A/B (Western blot) [5]: increasing amounts of autophagy proteins over time as well as increased phosphorylation of ULK1 and LC3 A/B
- Mean Brain Concentration [6, 10]: 0 ng/g
- Mean Plasma Concentration [6, 10]: 0 ng/mL
- Mean Brain Concentration ([6]; 25 mg/kg single dose P.O., 0.50 h, in ng/g): 40017.53
- Mean Plasma Concentration ([6]; 25 mg/kg single dose P.O., 0.50 h, in ng/mL): 5273.66
- Mean Brain Concentration ([6]; 25 mg/kg single dose P.O., 1.00 h, in ng/g): 28802.80
- Mean Plasma Concentration ([6]; 25 mg/kg single dose P.O., 1.00 h, in ng/mL): 5486.04
- Mean Brain Concentration ([6]; 25 mg/kg single dose P.O., 3.00 h, in ng/g): 6158.13
- Mean Plasma Concentration ([6]; 25 mg/kg single dose P.O., 3.00 h, in ng/mL): 1945.44
- Mean Brain Concentration ([6]; 25 mg/kg single dose P.O., 6.00 h, in ng/g): 1948.79
- Mean Plasma Concentration ([6]; 25 mg/kg single dose P.O., 6.00 h, in ng/mL): 889.87
- Mean Brain Concentration [6, 11]: 0 ng/g
- Mean Plasma Concentration [6, 11]: 0 ng/mL
- Mean Brain Concentration [6, 12]: 0 ng/g
- Mean Plasma Concentration [6, 12]: 0 ng/mL
- AUCextrap ([6]; Brain, oral 25 mg/kg): 4.74%
- AUCinf ([6]; Brain, oral 25 mg/kg): 78032.82 ng·h/g
- AUClast ([6]; Brain, oral 25 mg/kg): 74330.76 ng·h/g
- AUCextrap ([6]; Plasma, oral 25 mg/kg): 13.75%
- Kp at 0 h ([6]; mouse, brain and plasma, oral, 25 mg/kg single dose P.O., 0.00 h, read-out: Brain to Plasma Ratio): 0
- Kp at 12 h ([6]; mouse, brain and plasma, oral, 25 mg/kg single dose P.O., 12.00 h, read-out: Brain to Plasma Ratio): 0
- Kp at 24 h ([6]; mouse, brain and plasma, oral, 25 mg/kg single dose P.O., 24.00 h, read-out: Brain to Plasma Ratio): 0
- Kp ([6]; mouse, brain and plasma, po, 25 mg/kg p.o., read-out: Cmax relative to plasma): 7
- Kp at 0.5 h ([6]; mouse, brain and plasma, po, 25 mg/kg single dose P.O., 0.50 h, read-out: Brain to Plasma Ratio): 7.59
- Kp at 1 h ([6]; mouse, brain and plasma, po, 25 mg/kg single dose P.O., 1.00 h, read-out: Brain to Plasma Ratio): 5.25
- Kp at 3 h ([6]; mouse, brain and plasma, po, 25 mg/kg single dose P.O., 3.00 h, read-out: Brain to Plasma Ratio): 3.17
- Kp at 6 h ([6]; mouse, brain and plasma, po, 25 mg/kg single dose P.O., 6.00 h, read-out: Brain to Plasma Ratio): 2.19
- Cmax ([6]; mouse, Brain, oral 25 mg/kg): 40000 ng/g
- MRT last ([6]; mouse, Brain, oral 25 mg/kg): 1.48 h
- Tmax ([6]; mouse, Brain, oral 25 mg/kg): 30 min
- half-life ([6]; mouse, Brain, oral 25 mg/kg): 79.2 min
- AUC(0-inf) ([6]; mouse, Plasma, oral 25 mg/kg): 18200 ng·h/mL
- AUC(0-t) ([6]; mouse, Plasma, oral 25 mg/kg): 15700 ng·h/mL
- Cmax ([6]; mouse, Plasma, oral 25 mg/kg): 5490 ng/mL
- MRT last ([6]; mouse, Plasma, oral 25 mg/kg): 1.96 h
- Tmax ([6]; mouse, Plasma, oral 25 mg/kg): 60 min
- half-life ([6]; mouse, Plasma, oral 25 mg/kg): 117 min
- Drug levels in tumor vs plasma ([7]; 75 mg/kg oral): higher VMY-BC-1 drug levels in tumor than in plasma
- AUCextrap ([7]; Plasma, oral 75 mg/kg): 0.34%
- AUCextrap ([7]; Tumor, oral 75 mg/kg): 7.48%
- AUCinf ([7]; Tumor, oral 75 mg/kg): 41005.56 ng·h/g
- AUClast ([7]; Tumor, oral 75 mg/kg): 37936.36 ng·h/g
- Kp ([7]; athymic nude, mouse, tumor and plasma, 75 mg/kg oral, read-out: Cmax in tumors relative to plasma): 3
- AUC(0-inf) [7, 13]: 32300 ng·h/mL
- AUC(0-t) [7, 13]: 32200 ng·h/mL
- Cmax [7, 13]: 4530 ng/mL
- MRT last [7, 13]: 5.76 h
- Tmax [7, 13]: 30 min
- half-life [7, 13]: 189 min
- Cmax [7, 14]: 13600 ng/g
- MRT last [7, 14]: 1.94 h
- Tmax [7, 14]: 60 min
- half-life [7, 14]: 91.2 min
- solubility thermodynamic [8]: 0.31 µM (≈ 0.0881 µg/mL)
- AUC(0-inf) [9]: 865 ng·h/mL
- AUC(inf) [9]: 149000 ng·min/mL
- Cmax [9]: 578 ng/mL and 1560 ng/g
- Concentration in brain vs plasma [9]: higher concentration in brain than in plasma
- Tmax [9]: 30 min
- concentration at 30 min [9]: 578 ng/mL and 1560 ng/g
- concentration at 60 min [9]: 470 ng/mL and 1400 ng/g
- concentration at 180 min [9]: 60 ng/mL and 169 ng/g
- Tmax ([9]; Tmax): 30 min
- half-life ([9]; T½): 44 min

Reference: patent US20220213126A1, “SMALL MOLECULE AUTOPHAGY INDUCERS FOR THE TREATMENT OF CANCER AND NEURODEGENERATIVE DISEASES” (John Wayne Cancer Institute, priority 2019, published 2022)
